How the values were obtained:
HCT-116 [1] = assay: Antiproliferative activity against human HCT116 cells assessed as reduction in cell growth at 2 uM incubated for 72 hrs by CCK-8 assay relative to control; type: functional; conditions: HCT-116, 72 h
A-375 [2] = assay: Antiproliferative activity against human A375 cells assessed as reduction in cell growth at 8 uM incubated for 72 hrs by CCK-8 assay relative to control; type: functional; conditions: A-375, 72 h
SMMC-7721 [3] = assay: Antiproliferative activity against human SMMC7721 cells assessed as reduction in cell growth at 8 uM incubated for 72 hrs by CCK-8 assay relative to control; type: functional; conditions: SMMC-7721, 72 h
A-375 [4] = assay: Antiproliferative activity against human A375 cells assessed as reduction in cell growth at 2 uM incubated for 72 hrs by CCK-8 assay relative to control; type: functional; conditions: A-375, 72 h
HCT-116 [5] = assay: Antiproliferative activity against human HCT116 cells assessed as reduction in cell growth at 8 uM incubated for 72 hrs by CCK-8 assay relative to control; type: functional; conditions: HCT-116, 72 h
A549 [6] = assay: Antiproliferative activity against human A549 cells assessed as reduction in cell growth at 8 uM incubated for 72 hrs by CCK-8 assay relative to control; type: functional; conditions: A549, 72 h
SMMC-7721 [7] = assay: Antiproliferative activity against human SMMC7721 cells assessed as reduction in cell growth at 2 uM incubated for 72 hrs by CCK-8 assay relative to control; type: functional; conditions: SMMC-7721, 72 h
A549 [8] = assay: Antiproliferative activity against human A549 cells assessed as reduction in cell growth at 2 uM incubated for 72 hrs by CCK-8 assay relative to control; type: functional; conditions: A549, 72 h
HeLa [9] = assay: Antiproliferative activity against human HeLa cells assessed as reduction in cell growth at 8 uM incubated for 72 hrs by CCK-8 assay relative to control; type: functional
HeLa [10] = assay: Antiproliferative activity against human HeLa cells assessed as reduction in cell growth at 2 uM incubated for 72 hrs by CCK-8 assay relative to control; type: functional
SMMC-7721 [11] = assay: Antiproliferative activity against human SMMC7721 cells assessed as reduction in cell growth incubated for 72 hrs by CCK-8 assay; type: functional, cell-based; conditions: SMMC-7721, 72 h

IC50 (SMMC-7721 [11]) [µM] | Compound | inhibition at 2 µM (HCT-116 [1]) [%] | inhibition at 8 µM (A-375 [2]) [%] | inhibition at 8 µM (SMMC-7721 [3]) [%] | inhibition at 2 µM (A-375 [4]) [%] | inhibition at 8 µM (HCT-116 [5]) [%] | inhibition at 8 µM (A549 [6]) [%] | inhibition at 2 µM (SMMC-7721 [7]) [%] | inhibition at 2 µM (A549 [8]) [%] | inhibition at 8 µM (HeLa [9]) [%] | inhibition at 2 µM (HeLa [10]) [%]
– | CCCCn1c(SCc2ccc(/C=C/C(=O)Nc3ccccc3N)cc2)nc2cc(F)ccc2c1=O | 12 | 15.8 | 29 | 1.9 | 33.2 | 13.5 | 10.2 | 4.6 | 26.2 | 11.6
– | COc1ccc2c(=O)n(C)c(SCc3ccc(/C=C/C(=O)Nc4ccccc4N)cc3)nc2c1 | 9.4 | 10.4 | 15.4 | 2.5 | 12.2 | 56.6 | 3.6 | 54.3 | 30.2 | 20.7
– | CCn1c(SCC(=O)Nc2ccccc2N)nc2cc(Cl)ccc2c1=O | 3.9 | 32.5 | 2.1 | 24.4 | 6.9 | 27.5 | 1.8 | 14.2 | 59.7 | 39.2
6.45 | Cc1ccc2c(=O)n(C)c(SCc3ccc(/C=C/C(=O)Nc4ccccc4N)cc3)nc2c1 | 2.3 | 36.1 | 63.6 | 29 | 32.2 | 41.4 | 20.2 | 20.3 | 27.7 | 22.1
4.86 | CCn1c(SCc2ccc(C(=O)Nc3cc(F)ccc3N)cc2)nc2cc(OC)ccc2c1=O | 50.3 | 38.8 | 61.4 | 17.1 | 67.8 | 36.4 | 36 | 12.3 | 41.6 | 6.9
– | CCn1c(SCc2ccc(C(=O)Nc3ccccc3N)cc2)nc2cc(OC)ccc2c1=O | 5 | 31.4 | 45.8 | 20 | 6.7 | 30.3 | 32.2 | 28 | 44 | 42.1
– | CCn1c(SCc2ccc(/C=C/C(=O)Nc3ccccc3N)cc2)nc2cc(Cl)ccc2c1=O | 12.1 | 22.9 | 28.4 | 12 | 28.4 | 45.7 | 12.1 | 31.6 | 21.8 | 8.7
– | CCCCn1c(SCc2ccc(C(=O)Nc3ccccc3N)cc2)nc2cc(Br)ccc2c1=O | 14.1 | 37.7 | 26.4 | 8.5 | 51.9 | 39.7 | 18.2 | 28.1 | 34.7 | 21.3
– | Cc1ccc2nc(SCc3ccc(/C=C/C(=O)Nc4ccccc4N)cc3)n(C)c(=O)c2c1 | 7.2 | 22.8 | 57.6 | 9 | 18.6 | 38.7 | 34.1 | 26.7 | 55.3 | 25.5
– | COc1ccc2c(=O)n(-c3cccc(Cl)c3)c(SCc3ccc(/C=C/C(=O)Nc4ccccc4N)cc3)nc2c1 | 2.1 | 8.9 | 5.1 | 5.4 | 12.7 | 37.2 | 0.7 | 4.1 | 24.9 | 16.3
0.69 | Cc1cccc2nc(SCc3ccc(C(=O)Nc4ccccc4N)cc3)n(C)c(=O)c12 | 29.1 | 36.9 | 68.5 | 35.6 | 68.5 | 41.8 | 59.2 | 34.7 | 58.3 | 43.8
– | Nc1ccccc1NC(=O)c1ccc(CSc2nc3cc(Br)ccc3c(=O)n2-c2cccc(Cl)c2)cc1 | 11.3 | 32.9 | 21 | 17.4 | 31.3 | 36.4 | 10.5 | 35.6 | 67 | 55
– | COc1ccc2c(=O)n(-c3cccc(Cl)c3)c(SCC(=O)Nc3ccccc3N)nc2c1 | 3.9 | 43.3 | 38.1 | 3.2 | 6.6 | 28.2 | 24.6 | 13 | 38.5 | 27.8
– | Cc1cccc2c(=O)n(C)c(SCc3ccc(/C=C/C(=O)Nc4ccccc4N)cc3)nc12 | 4.5 | 13.7 | 36.4 | 9.3 | 5.8 | 43.8 | 26.3 | 34 | 56.6 | 31.6
– | Cn1c(SCc2ccc(/C=C/C(=O)Nc3ccccc3N)cc2)nc2cc(F)ccc2c1=O | 0.9 | 6.4 | 29.5 | 1.6 | 3.3 | 22.9 | 12.3 | 2.9 | 21.2 | 12.7
– | CCn1c(SCc2ccc(C(=O)Nc3ccccc3N)cc2)nc2cc(F)ccc2c1=O | 5.3 | 10.3 | 20.4 | 8.4 | 64.3 | 56.5 | 0.8 | 54.4 | 31 | 25.7
– | CCn1c(SCc2ccc(C(=O)Nc3ccccc3N)cc2)nc2cc(Cl)ccc2c1=O | 7.3 | 49.9 | 34.2 | 12.7 | 7.4 | 13.7 | 18.4 | 3.6 | 43.4 | 39.1
– | Cn1c(SCc2ccc(/C=C/C(=O)Nc3ccccc3N)cc2)nc2cc(Br)ccc2c1=O | 9 | 6.3 | 15.2 | 4 | 19.4 | 14 | 13.2 | 1.9 | 30.3 | 17.7
